From patent US8063059B2, “Use of compositions containing kappa-opioid receptor antagonists for the treatment of dissociative disorders” (Emodys GmbH, priority 2006, dated 2011)

Key:
[1] = test system: patient diagnosed with post traumatic stress disorders; experiment: Medical Application Example 1: buprenorphine in a patient with post traumatic stress disorders; format: in vivo, human; conditions: one patient
Description: Buprenorphine in the form of a tablet with an active ingredient content of 12 mg was administered sublingually to a patient diagnosed with post traumatic stress disorders with the corresponding psychiatric symptoms.

[2] = test system: patient diagnosed with emotionally unstable personality disorder; experiment: Medical Application Example 3: buprenorphine in patients with emotionally unstable personality disorder; format: in vivo, human
Description: In medical application examples 3 and 4 buprenorphine, alone or in conjunction with a kappa-opioid receptor antagonist, is used for patients diagnosed with emotionally unstable personality disorder as a possibility for treating the personality disorder and reducing the associated social, somatic and psychiatric consequences.
Buprenorphine was administered as a mucoadhesive sachet with an active ingredient content of 12 mg to a patient diagnosed with emotionally unstable personality disorder.

[3] = one year following the start of treatment

2-(N-cyclopropylmethyl-4,5alpha-epoxy-3-hydroxy-6-methoxy-6,14-endoethanomorphinan-7alpha-yl)-3,3-dimethyl-2-butanol [Buprenorphine]
flashback symptoms and daily life intrusions [1, 3]: significant improvement
lethargy and emotional swings, intrusive dissociation sensations (patient-indicated) [1, 3]: clear subjective improvement
occurrence of flashback situations ([1]; sublingual tablet, daily dosage increased from 12 mg to 16 mg): decrease significantly
self-injuries after one year ([2]; one patient, daily ingestion of 12 mg, after one year): complete lack of self-injuries
self-injuring behaviour ([2]; one patient, mucoadhesive sachet, 12 mg): complete remission
frequency of self-cutting ([2]; two other patients): significant reduction
